Measured values: patent US8822462B2, “Subunit selective NMDA receptor potentiators for the treatment of neurological conditions” (Emory University, priority 2009, dated 2014)
pEC50, pIC50: −log10 of the molar value.

Experiments:
NR1/NR2D = NR1/NR2D (Homo sapiens, UniProt O15399+Q05586); test: Two electrode voltage clamp, Xenopus laevis oocytes expressing NR1/NR2D; settings: for activity at 100 µM: read-out: 2D percent effect at the maximum tested concentration, at 100 μM; for Emax: read-out: 2D Max
NR1/NR2B = target: T1, NR1/NR2B (Homo sapiens, UniProt Q05586+Q13224); test: Two electrode voltage clamp, Xenopus laevis oocytes expressing NR1/NR2B; type: cell-based; settings: at 100 μM; read-out: 2B percent effect at the maximum tested concentration
T1 construct: expressed in transfected cells; host or cells: Xenopus laevis oocytes
Protocol: (§1) In the table above, potency is expressed as fitted EC50 value to average composite concentration-effect data constructed from current responses recorded under two electrode voltage clamp from Xenopus laevis oocytes expressing either NR1/NR2A, B, C, or D, GluR1, or GluR6. No effect means less than 20% change in response amplitude at 30 μM of drug.

NR1/NR2A = target: T2, NR1/NR2A (Homo sapiens, UniProt Q12879); test: Two electrode voltage clamp, Xenopus laevis oocytes expressing NR1/NR2A; type: cell-based; settings: read-out: 2A percent effect at the maximum tested concentration
T2 construct: expressed in transfected cells; host or cells: Xenopus laevis oocytes
Protocol: as §1

NR1/NR2C = target: T3, NR1/NR2C (Homo sapiens, UniProt Q05586+Q14957); test: Two electrode voltage clamp, Xenopus laevis oocytes expressing NR1/NR2C; type: cell-based; settings: for pIC50: fitted to composite concentration-effect data, read-out: 2C IC50; for Emax: maximal effect of fit, read-out: 2C Max
T3 construct: expressed in transfected cells; host or cells: Xenopus laevis oocytes
Text: Values are mean+SEM (n=14-20). […] C is the closed level; broken line is the open level.
The Hill slope at both receptors for all analogues was greater than 1, consistent with a cooperative effect of binding at two sites.
as §1

[1] = read-out: 2C percent effect at the maximum tested concentration

T2 sequence (Q12879 23-1464, species assumed, other chains not shown): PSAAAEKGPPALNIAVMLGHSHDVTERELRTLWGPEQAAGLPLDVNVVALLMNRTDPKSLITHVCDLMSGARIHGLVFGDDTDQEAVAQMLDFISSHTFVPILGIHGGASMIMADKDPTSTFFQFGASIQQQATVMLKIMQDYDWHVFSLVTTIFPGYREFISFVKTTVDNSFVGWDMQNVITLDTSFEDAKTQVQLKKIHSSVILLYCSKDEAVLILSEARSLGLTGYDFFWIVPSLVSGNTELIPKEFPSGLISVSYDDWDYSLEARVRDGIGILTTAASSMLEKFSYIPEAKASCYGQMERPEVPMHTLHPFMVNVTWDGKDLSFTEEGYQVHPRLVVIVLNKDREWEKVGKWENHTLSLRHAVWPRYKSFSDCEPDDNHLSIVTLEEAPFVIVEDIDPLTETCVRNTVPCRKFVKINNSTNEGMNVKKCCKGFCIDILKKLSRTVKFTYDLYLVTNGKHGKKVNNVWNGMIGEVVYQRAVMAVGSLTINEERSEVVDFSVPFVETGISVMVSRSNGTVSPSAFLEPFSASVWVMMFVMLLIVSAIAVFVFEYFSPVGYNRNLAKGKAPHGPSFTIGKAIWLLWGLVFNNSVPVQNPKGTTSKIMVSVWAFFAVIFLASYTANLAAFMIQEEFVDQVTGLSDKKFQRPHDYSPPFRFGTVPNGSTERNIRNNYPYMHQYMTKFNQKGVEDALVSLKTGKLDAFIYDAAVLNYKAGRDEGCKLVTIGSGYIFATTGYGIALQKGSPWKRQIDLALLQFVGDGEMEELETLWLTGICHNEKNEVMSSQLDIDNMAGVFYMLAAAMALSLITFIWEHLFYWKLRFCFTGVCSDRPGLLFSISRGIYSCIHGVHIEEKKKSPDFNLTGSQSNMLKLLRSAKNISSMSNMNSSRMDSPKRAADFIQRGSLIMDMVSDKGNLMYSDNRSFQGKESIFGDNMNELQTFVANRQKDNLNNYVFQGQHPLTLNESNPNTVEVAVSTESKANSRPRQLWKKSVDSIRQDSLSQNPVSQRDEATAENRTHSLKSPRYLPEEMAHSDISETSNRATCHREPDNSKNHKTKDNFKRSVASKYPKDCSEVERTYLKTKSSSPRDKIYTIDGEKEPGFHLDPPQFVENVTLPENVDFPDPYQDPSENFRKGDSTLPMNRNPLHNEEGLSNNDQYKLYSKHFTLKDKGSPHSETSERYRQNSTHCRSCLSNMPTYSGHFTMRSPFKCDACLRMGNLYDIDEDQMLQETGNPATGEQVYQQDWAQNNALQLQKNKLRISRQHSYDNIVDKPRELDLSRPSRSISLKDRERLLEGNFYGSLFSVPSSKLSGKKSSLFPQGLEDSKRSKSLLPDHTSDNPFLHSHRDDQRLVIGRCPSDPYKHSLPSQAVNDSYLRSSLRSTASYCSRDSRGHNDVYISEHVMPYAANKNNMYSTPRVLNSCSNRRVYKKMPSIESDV
Sequence of NR1/NR2D (O15399 28-1336, species assumed, other chains not shown): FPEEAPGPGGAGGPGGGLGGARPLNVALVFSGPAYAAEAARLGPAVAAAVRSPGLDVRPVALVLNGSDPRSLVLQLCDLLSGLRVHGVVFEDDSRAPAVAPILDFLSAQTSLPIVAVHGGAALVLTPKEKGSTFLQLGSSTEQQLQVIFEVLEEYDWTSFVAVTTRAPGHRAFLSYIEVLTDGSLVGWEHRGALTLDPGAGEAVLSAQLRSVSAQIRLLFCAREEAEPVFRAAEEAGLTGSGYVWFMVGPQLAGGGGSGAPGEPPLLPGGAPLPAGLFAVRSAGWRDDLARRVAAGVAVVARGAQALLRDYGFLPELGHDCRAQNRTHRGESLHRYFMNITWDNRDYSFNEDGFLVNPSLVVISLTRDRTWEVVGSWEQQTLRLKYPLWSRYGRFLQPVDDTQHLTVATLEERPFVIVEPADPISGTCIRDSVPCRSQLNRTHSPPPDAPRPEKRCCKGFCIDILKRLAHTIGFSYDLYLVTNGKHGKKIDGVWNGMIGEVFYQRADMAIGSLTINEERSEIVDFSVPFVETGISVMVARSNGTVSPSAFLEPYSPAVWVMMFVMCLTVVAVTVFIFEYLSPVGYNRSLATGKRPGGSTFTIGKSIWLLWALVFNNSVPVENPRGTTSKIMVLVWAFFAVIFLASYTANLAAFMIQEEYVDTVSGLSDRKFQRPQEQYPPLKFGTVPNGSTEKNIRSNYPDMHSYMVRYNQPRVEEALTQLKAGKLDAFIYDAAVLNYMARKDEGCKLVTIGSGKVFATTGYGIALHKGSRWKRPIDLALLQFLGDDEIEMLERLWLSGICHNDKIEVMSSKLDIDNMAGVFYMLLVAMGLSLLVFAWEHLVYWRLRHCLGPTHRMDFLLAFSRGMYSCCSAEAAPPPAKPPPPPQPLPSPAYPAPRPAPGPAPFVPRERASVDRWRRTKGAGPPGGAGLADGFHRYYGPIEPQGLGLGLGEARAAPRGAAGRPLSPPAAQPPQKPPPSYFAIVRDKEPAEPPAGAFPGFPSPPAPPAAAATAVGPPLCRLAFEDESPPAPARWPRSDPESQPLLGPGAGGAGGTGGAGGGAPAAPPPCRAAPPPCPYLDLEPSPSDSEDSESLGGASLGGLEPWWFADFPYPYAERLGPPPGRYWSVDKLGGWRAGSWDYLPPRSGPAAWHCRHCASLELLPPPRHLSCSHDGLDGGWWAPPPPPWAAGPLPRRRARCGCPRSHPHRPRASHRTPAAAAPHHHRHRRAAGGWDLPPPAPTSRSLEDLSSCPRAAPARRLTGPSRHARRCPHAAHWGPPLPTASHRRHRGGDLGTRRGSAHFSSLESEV
T3 sequence (Q14957 20-1233, species assumed, other chains not shown): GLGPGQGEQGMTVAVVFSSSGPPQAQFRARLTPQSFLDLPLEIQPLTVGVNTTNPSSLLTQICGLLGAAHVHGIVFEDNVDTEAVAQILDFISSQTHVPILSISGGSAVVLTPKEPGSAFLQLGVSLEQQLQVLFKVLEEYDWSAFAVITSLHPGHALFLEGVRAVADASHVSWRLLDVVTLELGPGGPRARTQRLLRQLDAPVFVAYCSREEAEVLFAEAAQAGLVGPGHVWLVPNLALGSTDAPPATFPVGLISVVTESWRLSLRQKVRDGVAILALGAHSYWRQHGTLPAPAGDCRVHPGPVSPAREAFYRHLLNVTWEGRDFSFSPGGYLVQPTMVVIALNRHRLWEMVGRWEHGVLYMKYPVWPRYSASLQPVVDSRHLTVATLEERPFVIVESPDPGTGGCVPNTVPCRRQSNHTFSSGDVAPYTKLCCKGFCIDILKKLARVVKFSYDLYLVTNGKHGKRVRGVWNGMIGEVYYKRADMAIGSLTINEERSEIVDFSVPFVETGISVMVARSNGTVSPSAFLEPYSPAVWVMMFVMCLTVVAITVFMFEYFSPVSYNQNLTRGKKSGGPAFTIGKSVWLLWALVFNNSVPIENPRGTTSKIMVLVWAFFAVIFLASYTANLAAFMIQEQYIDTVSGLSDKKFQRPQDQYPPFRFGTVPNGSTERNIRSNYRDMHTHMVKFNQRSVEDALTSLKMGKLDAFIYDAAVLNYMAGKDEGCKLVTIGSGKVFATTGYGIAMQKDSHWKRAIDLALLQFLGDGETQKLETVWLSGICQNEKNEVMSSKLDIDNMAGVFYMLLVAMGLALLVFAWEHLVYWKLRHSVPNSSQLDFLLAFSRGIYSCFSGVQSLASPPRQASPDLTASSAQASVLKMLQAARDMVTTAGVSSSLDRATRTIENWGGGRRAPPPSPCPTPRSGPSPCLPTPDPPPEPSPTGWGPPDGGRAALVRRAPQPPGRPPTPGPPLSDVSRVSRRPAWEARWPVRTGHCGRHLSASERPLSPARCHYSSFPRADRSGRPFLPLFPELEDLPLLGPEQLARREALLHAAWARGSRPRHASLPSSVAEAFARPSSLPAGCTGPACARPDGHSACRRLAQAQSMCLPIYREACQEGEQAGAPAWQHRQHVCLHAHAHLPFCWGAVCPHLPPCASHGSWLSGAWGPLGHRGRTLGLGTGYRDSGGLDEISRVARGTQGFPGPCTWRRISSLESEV

Row | SMILES | activity at 100 µM (NR1/NR2D) | activity at 100 µM (NR1/NR2C; [1]) | further results
1 | CCc1cc(C(=O)O)c(NC(=O)c2ccc(C(C)(C)C)cc2)s1 [compound 1421] |  |  | pIC50 (NR1/NR2D): 4.46; Emax (NR1/NR2D): 152%; activity at 100 µM (NR1/NR2B): 100%; activity at 100 µM (NR1/NR2A): 106%; pIC50 (NR1/NR2C): 4.39; Emax (NR1/NR2C): 159%
2 | CC(C)(C)c1ccc(NC(=O)C2CC=CCC2C(=O)O)cc1 (centres unmarked) [compound 1480] | 85% | 86% | activity at 100 µM (NR1/NR2B): 83%; activity at 100 µM (NR1/NR2A): 92%
3 | NCC(=O)O [glycine, reference compound] |  |  | pEC50 (NR1/NR2D): 6.70
4 | COc1cc2c(cc1OC)CN(C(=O)c1cccc(Cl)c1)CC2 [1180-29] |  | 82% | activity at 100 µM (NR1/NR2B): 58%; activity at 100 µM (NR1/NR2A): 75%
5 | COc1ccc(OCC2c3cc(OC)c(OC)cc3CCN2C(=O)c2ccc(Cl)c(Cl)c2)cc1 (centres unmarked) [1180-10] |  |  | pIC50 (NR1/NR2D): 5.10; Emax (NR1/NR2D): 172%; pIC50 (NR1/NR2C): 5.52; Emax (NR1/NR2C): 134%
6 | COC(=O)c1ccc(OCC2c3cc(OC)c(OC)cc3CCN2C(=O)c2cccc(Br)c2)cc1 (centres unmarked) [compound 1410] | 89% | 94% | 
7 | COc1ccc(OCC2c3cc(OC)c(OC)cc3CCN2C(=S)Nc2ccccc2)cc1 (centres unmarked) [compound 1412] | 79% | 93% | 
8 | COc1ccc(OCC2c3cc(OC)c(OC)cc3CCN2S(=O)(=O)c2cccc(Cl)c2)cc1 (centres unmarked) [compound 1511] |  |  | activity at 10 µM (NR1/NR2D; read-out: 2D percent effect at the maximum tested concentration, at 10 μM): 96%; activity at 10 µM (NR1/NR2C; at 10 μM, read-out: 2C percent effect at the maximum tested concentration): 99%
9 | COc1cc2c(cc1OC)C(CCc1ccccc1)N(C(=O)c1cccc(F)c1)CC2 (centres unmarked) [1180-1] |  |  | activity at 30 µM (NR1/NR2D; read-out: 2D percent effect at the maximum tested concentration, at 30 μM): 90%; activity at 100 µM (NR1/NR2A): 110%; activity at 30 µM (NR1/NR2C; at 30 μM, read-out: 2C percent effect at the maximum tested concentration): 96%
10 | COc1ccc(OC[C@@H]2c3cc(OC)c(OC)cc3CCN2C(=O)c2cccc(Cl)c2)cc1 [1180-15] |  |  | pIC50 (NR1/NR2D): 5.40; Emax (NR1/NR2D): 364%; activity at 30 µM (NR1/NR2A; at 30 μM): 128%; pIC50 (NR1/NR2C): 5.62; Emax (NR1/NR2C): 330%
11 | COc1ccc(OCC2c3cc(OC)c(OC)cc3CCN2C(=O)c2ccc3c(c2)OCO3)cc1 (centres unmarked) [compound 1408] | 88% | 95% | 
12 | COc1ccc(OCC2c3cc(OC)c(OC)cc3CCN2C(=O)c2ccc(OC)cc2)cc1 (centres unmarked) [compound 1364] | 93% | 98% | activity at 100 µM (NR1/NR2B): 75%
13 | C=C(OC)c1ccc(OCC2c3cc(OC)c(OC)cc3CCN2C(=O)c2ccc(OC)cc2)cc1 (centres unmarked) [compound 1367] | 93% | 104% | 

Further lines, with some results ahead:

Row | activity at 100 µM (NR1/NR2D) | activity at 100 µM (NR1/NR2C; [1]) | SMILES | further results
14 | 100% | 89% | COc1ccc(OCC2c3cc(OC)c(OC)cc3CCN2C(=O)c2ccc(C)cc2)cc1 (centres unmarked) [compound 1371] | activity at 100 µM (NR1/NR2B): 70%; activity at 100 µM (NR1/NR2A): 73%
15 | 97% | 105% | COc1ccc(OCC2c3cc(OC)c(OC)cc3CCN2C(=O)c2ccccc2C)cc1 (centres unmarked) [compound 1263] | 
16 | 66% | 84% | COc1ccc(OCC2c3cc(OC)c(OC)cc3CCN2C(=O)Nc2ccc(Cl)cc2)cc1 (centres unmarked) [compound 1411] | 
17 | 88% | 86% | COc1ccc(OCC2c3cc(OC)c(OC)cc3CCN2C(=O)Nc2ccccc2)cc1 (centres unmarked) [compound 1407] | 
18 | 93% | 99% | COc1ccc(OCC2c3cc(OC)c(OC)cc3CCN2C(=S)Nc2cccc(F)c2)cc1 (centres unmarked) [compound 1414] | 
19 | 87% | 90% | COc1ccc(OCC2c3cc(OC)c(OC)cc3CCN2C(=O)c2ccncc2)cc1 (centres unmarked) [compound 1510] | activity at 100 µM (NR1/NR2B): 87%
20 | 82% | 76% | COc1ccc(OCC2c3cc(OC)c(OC)cc3CCN2C(=O)c2ccccc2Cl)cc1 (centres unmarked) [compound 1409] | 
21 | 74% | 102% | COc1ccc(OCC2c3cc(OC)c(OC)cc3CCN2C(=S)Nc2cccc(C)c2)cc1 (centres unmarked) [compound 1413] | 
22 | 87% | 96% | COc1ccc(OCC2c3cc(OC)c(OC)cc3CCN2C(=S)Nc2cccc(Br)c2)cc1 (centres unmarked) [compound 1416] | 
23 | 87% | 99% | COc1ccc(OCC2c3cc(OC)c(OC)cc3CCN2C(=S)Nc2cccc(Cl)c2)cc1 (centres unmarked) [compound 1415] | 
